Reference: patent publication US20200069644A1, “NOVEL USE OF A FORMYL PEPTIDE RECEPTOR 2/ LIPOXIN A4 RECEPTOR (FPR2/ALX) AGONIST FOR TREATMENT OF HEART FAILURE” (BRISTOL- MYERS SQUIBB COMPANY, priority 2017, published 2020)
Where “and” joins values, the source holds several entries; their conditions need not be identical. Equal entries are not always repeated.

Legend:
Mouse FPR1 = target: T1, Mouse FPR1 (Mus musculus, UniProt P33766); experiment: cAMP inhibition, mouse FPR1/CHO-A12; type: cell-based
T1 construct: expressed in transfected cells
T1 sequence (P33766 1-364): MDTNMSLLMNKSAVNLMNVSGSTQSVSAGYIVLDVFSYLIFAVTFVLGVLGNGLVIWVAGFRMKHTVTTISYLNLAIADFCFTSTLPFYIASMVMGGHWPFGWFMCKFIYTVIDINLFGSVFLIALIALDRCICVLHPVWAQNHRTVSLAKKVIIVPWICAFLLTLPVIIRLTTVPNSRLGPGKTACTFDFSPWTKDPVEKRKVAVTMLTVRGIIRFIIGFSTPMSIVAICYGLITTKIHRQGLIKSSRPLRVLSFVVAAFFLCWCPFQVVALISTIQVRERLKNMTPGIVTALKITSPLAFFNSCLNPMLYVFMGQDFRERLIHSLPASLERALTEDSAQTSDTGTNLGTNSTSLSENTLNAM

Rat FPR1 = target: T2, Rat FPR1 (Rattus norvegicus, UniProt D4A7Q2); experiment: cAMP inhibition, rat FPR1 CHO cells; type: cell-based
T2 construct: expressed in transfected cells; host or cells: CHO
T2 sequence (D4A7Q2 1-355): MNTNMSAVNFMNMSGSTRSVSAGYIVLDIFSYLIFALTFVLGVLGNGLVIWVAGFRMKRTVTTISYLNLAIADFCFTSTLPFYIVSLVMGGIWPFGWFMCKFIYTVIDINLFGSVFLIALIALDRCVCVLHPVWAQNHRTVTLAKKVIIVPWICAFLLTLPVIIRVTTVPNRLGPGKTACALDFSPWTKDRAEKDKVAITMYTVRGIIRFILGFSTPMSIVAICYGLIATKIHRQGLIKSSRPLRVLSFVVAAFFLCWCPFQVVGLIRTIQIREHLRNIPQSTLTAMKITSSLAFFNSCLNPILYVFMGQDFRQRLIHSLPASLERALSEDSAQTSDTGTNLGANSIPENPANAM

[1] = system: ischemia-reperfusion myocardial infarction in rats; experiment: Rat model of ischemia-reperfusion myocardial infarction, 6 weeks; type: in vivo
Procedure: In a third model of myocardial infarction, transient coronary artery occlusion followed by reperfusion was carried out in rats to induce myocardial infarction and to assess salvage of myocardium within the area at risk of myocardial infarction. Treatment with orally-administered Compound 1 (0.01, 0.1, 1, and 10 mg/kg, QD) or dosing solution without compound (QD, referred to as vehicle) was initiated 48 hours following myocardial infarction. Rats subjected to thoracotomy but not infarcted were included as surgical “sham” controls. Rats were evaluated 6 weeks following myocardial infarction to assess structure/function relationships. Hearts were removed from rats for histological processing to the extent of myocardial salvage with Compound 1 treatment. The pressure-volume conductance catheter technique was used to evaluate cardiac function.
The effects of Compound 1 on left ventricle and infarct scar remodeling were evaluated in a rat model of ischemia-reperfusion myocardial infarction. Treatments were initiated 48 hr after MI and were continued for 6 weeks. MI was created by transient ligation the left anterior descending artery with a surgical suture for 1 hour followed by reperfusion. Treatments consisted of a suspension vehicle, Compound 1 at 0.01, 0.1, 1 and 10 mg/kg. At the end of 6 weeks of treatment, hearts were removed for histological evaluation of left ventricle structure and scar structure. This is a model of ischemic heart disease.
In addition, the effect of Compound 1 on cardiac function was measured by the pressure-volume conductance catheter technique to assess structure/function relationships. The structure of the infarct wall was measured histologically to determine the extent of myocardial infarction and myocardial tissue salvage. In this model, blood reperfusion to the site of ischemia is designed to salvage myocardium within the area at risk of myocardial infarction. However, in this model, there is potential for additional insult to tissue caused by reperfusion that can stimulate added myocardial necrosis. Therefore, measurement of myocardial salvage within the myocardial infarct zone is an important endpoint in this model. […] Preservation of viable myocardium was obtained at the 0.1, 1 and 10 mg/kg doses (31-41% preservation relative to vehicle, *P<0.05, **P<0.01, ***P<0.001).
A pressure-volume conductance catheter was used to measure left ventricular ejection fraction at the end of the treatment phase. The fraction of blood pumped out of the left ventricle was measured per contraction cycle (i.e., ejection fraction) and was used to assess overall cardiac function following 6 weeks of treatment. […]

[2] = system: DOCA-challenged cardiac fibrosis in mice; type: in vivo
Procedure: In a second model of non-ischemic heart disease with hypertension, mice were subjected to uni-nephrectomy and challenged with deoxycorticosterone acetate (DOCA) and saline drinking water to stimulate cardiac hypertrophy and left ventricular fibrosis. Mice were administered DOCA using subcutaneously implanted pellets (50 mg). A separate group of mice were subjected to surgery via creation of subcutaneous pocket (surgical “sham” group); these mice served as control for pellet implantation surgery. Mice were treated with Compound 1 (1 mg/kg, QD) or dosing solution (QD, referred to as vehicle) 24 hours after surgery. Treatment with Compound 1 was given to mice for 3 weeks. At the end of treatment phase, hearts were removed from animals and evaluated for collagen levels/fibrosis by cross-sectional histology of the hearts.
Myocardial fibrosis was evaluated in the mouse with continuous DOCA challenge administered by subcutaneous release pellet. The model increases systemic blood pressure and tissue inflammation in target tissues such as the myocardium via agonism of the mineralocorticoid receptor by DOCA. It also involves surgical uni-nephrectomy and supplementation with saline in the drinking water to further drive disease pathology. This is a model of non-ischemic heart disease.
The effect of Compound 1 on cardiac fibrosis development in the DOCA-salt mouse model was evaluated histologically. […]

`COc1cc(F)c([C@@H]2CNC(=O)[C@H]2NC(=O)Nc2ccccc2)c(F)c1` [Compound 1, 1-((3S,4R)-4-(2,6-difluoro-4-methoxyphenyl)-2-oxopyrrolidin-3-yl)-3-phenylurea] was tested, and the EC50 (Mouse FPR1) was ~384 nM and 384 nM, the EC50 (Rat FPR1) was 720 nM and the “improvement in left ventricular ejection fraction vs. vehicle (pressure-volume conductance catheter)” value ([1]; 0.01 mg/kg PO QD, P<0.05) was 37%. For the same compound, the “improvement in left ventricular ejection fraction vs. vehicle (pressure-volume conductance catheter)” value ([1]; 1 mg/kg PO QD, P<0.01) was 51%, the “preservation of viable myocardium across infarct wall relative to vehicle” value ([1]; 0.1, 1 and 10 mg/kg PO QD) was 31-41% and the “left ventricular ejection fraction vs. vehicle (pressure-volume conductance catheter)” value ([1]; other doses (0.1 and 10 mg/kg)) was “trend towards improved ejection fraction”. For the same compound, the “reduction of left ventricular fibrosis vs. vehicle treatment group” value ([2]; 1 mg/kg QD for 3 weeks, started 24 h after surgery, P<0.01) was 50% and the “tolerability during in-life phase” value ([2]; mouse, in vivo, 1 mg/kg) was “well tolerated”.
